Kd and GI50 data for twelve compounds are collected here from patent publication US20250032623A1, “HETEROBIFUNCTIONAL COMPOUNDS AND THEIR USE IN TREATING DISEASE” (HALDA THERAPEUTICS OPCO, INC., priority 2021, published 2025).

One assay concerns the target T1, EGFR (Homo sapiens, UniProt P00533).
T1 construct: purchased
Description: KdELECT binding assay, EGFR. The protocol:
Exemplary compounds were tested for ability to bind to EGFR.
Compounds were tested using a KdELECT assay. Kinase-tagged T7 phage strains were prepared in an E. coli host derived from the BL21 strain. E. coli were grown to log-phase and infected with T7 phage and incubated with shaking at 32° C. until lysis. The lysates were centrifuged and filtered to remove cell debris. The remaining kinases were produced in HEK-293 cells and subsequently tagged with DNA for qPCR detection. Streptavidin-coated magnetic beads were treated with biotinylated small molecule ligands for 30 minutes at room temperature to generate affinity resins for kinase assays. The liganded beads were blocked with excess biotin and washed with blocking buffer (SeaBlock (Pierce), 1% BSA, 0.05% Tween 20, 1 mM DTT) to remove unbound ligand and to reduce non-specific binding. Binding reactions were assembled by combining kinases, liganded affinity beads, and test compounds in 1× binding buffer (20% SeaBlock, 0.17×PBS, 0.05% Tween 20, 6 mM DTT). Test compounds were prepared as 111× stocks in 100% DMSO. Kd values were determined using an 11-point 3-fold compound dilution series with three DMSO control points. All compounds for Kd measurements are distributed by acoustic transfer (non-contact dispensing) in 100% DMSO. The compounds were then diluted directly into the assays such that the final concentration of DMSO was 0.9%. All reactions performed in polypropylene 384-well plate. Each was a final volume of 0.02 mL. The assay plates were incubated at room temperature with shaking for 1 hour and the affinity beads were washed with wash buffer (1× PBS, 0.05% Tween 20). The beads were then re-suspended in elution buffer (1× PBS, 0.05% Tween 20, 0.5 μM nonbiotinylated affinity ligand) and incubated at room temperature with shaking for 30 minutes. The kinase concentration in the eluates was measured by qPCR.

Another assay deals with HEK293 cells. Description: Cellular growth inhibition assay (CellTiter-Glo), HEK293 cells. In kind it is cell-based. The note with it: three days compound treatment, CellTiter-Glo 2.0, read-out: CTG HEK293 GI50. The protocol:
(§1) Exemplary compounds were tested for ability to inhibit the proliferation of HEK293 cells or HeLa cells.
(§2) HEK293 and HeLa cells were cultured in DMEM medium supplemented with 10% fetal bovine serum and 1% Penn/Strep. Cells were seeded in white 384-well plates at 500 cells/well in […] complete medium. Following seeding, plates were spun at 300×g for three minutes and cultured at 37° C. with 5% CO2 in a humidified tissue culture incubator.
(§3) After 24 hours, compounds were titrated in 100% DMSO and diluted in complete cell culture medium. […] of compound/media mixture was added to cells to bring total volume in well to […]. DMSO alone was used as a negative control. P lates were then spun at 300×g for three minutes and stored at 37° C. with 5% CO2 for three days.
(§4) On Day 0 and Day 3 of compound treatment, cell viability was quantified with CellTiter-Glo 2.0 reagent (Promega). After equilibrating microplates at room temperature for 30 minutes, 25 μL CellTiter-Glo 2.0 reagent was dispensed into each well to bring total volume to […]. Plates were mixed on shaker for 2 minutes at 500 rpm, followed by a 10-minute incubation at room temperature. Following a quick spin, luminescence readings were measured with an EnVision Plate Reader. Data was normalized to DMSO treated Day 0 and Day 3 readings. A four-parameter non-linear regression curve fit was applied to dose-response data in GraphPad Prism data analysis software to determine the half maximal growth inhibitory concentration (GI50) for each compound.

The subject of another assay is HeLa cells. Description: Cellular growth inhibition assay (CellTiter-Glo), HeLa cells. In kind it is cell-based. The following applies: three days compound treatment, CellTiter-Glo 2.0, read-out: CTG HELA GI50. The protocol: as §1, §2, §3, §4
Background: In ATP-based viability assays light output follows the ATP content of the culture.

The structures appear in SMILES notation. Where two headings read alike, the source gives them in different places. Bounds are passed on as bounds.

T1 sequence (P00533 25-1210): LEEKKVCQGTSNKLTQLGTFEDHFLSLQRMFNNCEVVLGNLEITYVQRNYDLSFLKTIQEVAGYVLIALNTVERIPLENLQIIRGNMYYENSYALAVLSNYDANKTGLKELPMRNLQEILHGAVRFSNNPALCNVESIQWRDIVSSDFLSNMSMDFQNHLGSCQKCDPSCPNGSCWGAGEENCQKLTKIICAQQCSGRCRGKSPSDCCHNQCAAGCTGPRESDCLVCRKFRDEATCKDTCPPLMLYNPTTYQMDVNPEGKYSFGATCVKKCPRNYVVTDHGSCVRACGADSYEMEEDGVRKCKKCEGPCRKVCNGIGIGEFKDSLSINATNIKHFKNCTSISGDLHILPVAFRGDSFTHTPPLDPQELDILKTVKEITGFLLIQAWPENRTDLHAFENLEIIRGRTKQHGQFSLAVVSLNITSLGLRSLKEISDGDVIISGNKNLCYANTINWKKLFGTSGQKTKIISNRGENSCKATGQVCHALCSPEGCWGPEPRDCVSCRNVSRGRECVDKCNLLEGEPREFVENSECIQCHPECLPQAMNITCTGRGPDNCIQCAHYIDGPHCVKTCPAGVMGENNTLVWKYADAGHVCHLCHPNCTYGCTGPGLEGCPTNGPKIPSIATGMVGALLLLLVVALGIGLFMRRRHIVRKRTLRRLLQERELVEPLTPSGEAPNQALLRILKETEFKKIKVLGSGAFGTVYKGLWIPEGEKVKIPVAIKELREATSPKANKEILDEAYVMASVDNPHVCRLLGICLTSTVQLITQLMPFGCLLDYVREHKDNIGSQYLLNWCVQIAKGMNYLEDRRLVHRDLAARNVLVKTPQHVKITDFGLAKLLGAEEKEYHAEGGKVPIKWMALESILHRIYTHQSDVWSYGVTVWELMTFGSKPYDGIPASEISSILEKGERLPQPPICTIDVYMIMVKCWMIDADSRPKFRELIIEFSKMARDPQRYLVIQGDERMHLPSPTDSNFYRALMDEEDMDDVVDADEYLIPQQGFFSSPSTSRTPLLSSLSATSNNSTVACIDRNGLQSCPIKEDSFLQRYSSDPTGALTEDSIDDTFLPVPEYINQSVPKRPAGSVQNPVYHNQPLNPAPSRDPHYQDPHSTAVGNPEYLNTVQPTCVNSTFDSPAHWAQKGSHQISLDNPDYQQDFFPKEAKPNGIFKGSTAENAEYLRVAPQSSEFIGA

What is called Kd is the constant that tells how readily two partners part at equilibrium. High values mean lower affinity, low ones higher affinity. Take `C=CC(=O)N[C@@H]1CN(c2nc(Nc3cn(CCOCCOCCOCCOCCON(C)C(=O)N4N=C(c5cc(F)ccc5F)SC4(CCCN)c4ccccc4)nc3OC)c3ncn(C)c3n2)C[C@H]1F` (some centres unmarked) [Compound I-66]: the Kd at EGFR is < 0.05 µM.

Usually GI50 stands for the concentration that inhibits growth by half. For `CCc1cnn2c(NCc3ccc(OCCOCCOCCOCCOCCN(C)C/C=C/C(=O)N4CCN(c5nc(=O)n(-c6c(C)ccnc6C(C)C)c6nc(-c7c(O)cccc7F)c(F)cc56)[C@@H](C)C4)nc3)cc(N3CCCC[C@H]3CCO)nc12` [Compound I-76], the GI50 in the assay with HEK293 cells (Homo sapiens, 72 h) is > 5 µM; with HeLa cells (Homo sapiens, 72 h), > 5 µM.

In the case of `Cc1c(CC(=O)N(C)C)ccc(NC(=O)c2nn([C@@H]3CCCN(C(=O)/C=C/CN(C)CCOCCOCC(=O)NCCCCn4nc(-c5ccc6oc(N)nc6c5)c5c(N)ncnc54)C3)c3ncnc(N)c23)c1C` [Compound I-83, 4-amino-1-[(3R)-1-[(E)-4-[2-1[2-[2-[4-[4-amino-3-(2-amino-1,3-benzoxazol-5-yl)pyrazolo[3,4-d]pyrimidin-1-yl]butylamino]-2-oxo-ethoxy]ethoxy]ethyl-methyl-amino]but-2-enoyl]-3-piperidyl]-N-[4-[2-(dimethylamino)-2-oxo-ethyl]-2,3-dimethyl-phenyl]pyrazolo[3,4-d]pyrimidine-3-carboxamide], the GI50 in the assay on HEK293 cells was 1.5 to 5 µM; in the assay with HeLa cells, > 5 µM.

As for `C=CC(=O)NC1CN(c2nc(Nc3cn(CCOCCOCCOCCOCCOCCOCCNC(=O)c4ccc(Nc5ncc6c(n5)N(C5CCCC5)[C@H](CC)C(=O)N6C)c(OC)c4)nc3OC)c3ncn(C)c3n2)C[C@H]1F` (stereo partly drawn) [Compound I-114, 4-[[(7R)-8-cyclopentyl-7-ethyl-5-methyl-6-oxo-7H-pteridin-2-yl]amino]-N-[2-[2-[2-[2-[2-[2-[2-[4-[[2-[(3R)-3-fluoro-4-(prop-2-enoylamino)pyrrolidin-1-yl]-9-methyl-purin-6-yl]amino]-3-methoxy-pyrazol-1-yl]ethoxy]ethoxy]ethoxy]ethoxy]ethoxy]ethoxy]ethyl]-3-methoxy-benzamide], the GI50 in the assay with HEK293 cells (Homo sapiens, 72 h) fell in the range of 1.5 to 5 µM.

For the compound `CC[C@@H]1C(=O)N(C)c2cnc(Nc3ccc(C(=O)NCCN(C)C/C=C/C(=O)Nc4cc(Nc5nccc(-c6cn(C)c7ccccc67)n5)c(OC)cc4N(C)CCN(C)C)cc3OC)nc2N1C1CCCC1` [Compound I-116, 4-[[(7R)-8-cyclopentyl-7-ethyl-5-methyl-6-oxo-7H-pteridin-2-yl]amino]-N-[2-[[(E)-4-1[2-[2-(dimethylamino)ethyl-methyl-amino]-4-methoxy-5-[[4-(1-methylindol-3-yl)pyrimidin-2-yl]amino]anilino]-4-oxo-but-2-enyl]-methyl-amino]ethyl]-3-methoxy-benzamide], the GI50 with HEK293 cells (Homo sapiens, 72 h) is 1.5 to 5 µM.

For `CC[C@@H]1C(=O)N(C)c2cnc(Nc3ccc(C(=O)NCCN(C)C/C=C/C(=O)NC4CN(c5nc(Nc6cn(C)nc6OC)c6ncn(C)c6n5)C[C@H]4F)cc3OC)nc2N1C1CCCC1` (stereo partly drawn) [Compound I-119, 4-[l[(7R)-8-cyclopentyl-7-ethyl-5-methyl-6-oxo-7H-pteridin-2-yl]amino]-N—[2-[ [(E)-4-[ [(3R,4R)-4-fluoro-1-[6-[(3-methoxy-1-methyl-pyrazol-4-yl)amino]-9-methyl-purin-2-yl]pyrrolidin-3-yl]amino]-4-oxo-but-2-enyl]-methyl-amino]ethyl]-3-methoxy-benzamide], in the assay with HEK293 cells (Homo sapiens, 72 h), the GI50 is 1.5 to 5 µM.

As to `C=CC(=O)N[C@@H]1CN(c2nc(Nc3cn(CCOCCOCCNS(=O)(=O)c4ccc(Nc5ncc(Br)c(Nc6cccc(F)c6C(N)=O)n5)cc4)nc3OC)c3ncn(C)c3n2)C[C@H]1F` [Compound I-142, 2-[[5-bromo-2-[4-[2-[2-[2-[4-[[2-1[(3R,4R)-3-fluoro-4-(prop-2-enoylamino)pyrrolidin-1-yl]-9-methyl-purin-6-yl]amino]-3-methoxy-pyrazol-1-yl]ethoxy]ethoxy]ethylsulfamoyl]anilino]pyrimidin-4-yl]amino]-6-fluoro-benzamide], the GI50 is > 5 µM in the assay on HEK293 cells and 1.5 to 5 µM in the assay on HeLa cells.

In the case of `C=CC(=O)N[C@@H]1CN(c2nc(Nc3cn(CCOCCOCCOc4ccc(CNc5cc(N6CCCC[C@H]6CCO)nc6c(CC)cnn56)cn4)nc3OC)c3ncn(C)c3n2)C[C@H]1F` [Compound I-144, N-[(3R,4R)-1-[6-[[1-[2-[2-[2-[[5-1[[[3-ethyl-5-[(2S)-2-(2-hydroxyethyl)-1-piperidyl]pyrazolo[1,5-a]pyrimidin-7-yl]amino]methyl]-2-pyridyl]oxy]ethoxy]ethoxy]ethyl]-3-methoxy-pyrazol-4-yl]amino]-9-methyl-purin-2-yl]-4-fluoro-pyrrolidin-3-yl]prop-2-enamide], the GI50 in the assay with HEK293 cells and in the assay on HeLa cells was < 0.5 µM in each case.

As to `C=CC(=O)N[C@@H]1CN(c2nc(Nc3cn(CCOCCOCCOCCOCCOc4ccc(CNc5cc(N6CCCC[C@H]6CCO)nc6c(CC)cnn56)cn4)nc3OC)c3ncn(C)c3n2)C[C@H]1F` [Compound I-145, N-[(3R,4R)-1-[6-[[1-[2-[2-[2-[2-[2-[[5-[[[3-ethyl-5-[(2S)-2-(2-hydroxyethyl)-1-piperidyl]pyrazolo[1,5-a]pyrimidin-7-yl]amino]methyl]-2-pyridyl]oxy]ethoxy]ethoxy]ethoxy]ethoxy]ethyl]-3-methoxy-pyrazol-4-yl]amino]-9-methyl-purin-2-yl]-4-fluoro-pyrrolidin-3-yl]prop-2-enamide], the GI50 was < 0.5 µM in the assay on HEK293 cells (Homo sapiens, 72 h) and < 0.5 µM with HeLa cells (Homo sapiens, 72 h).

With `C=CC(=O)N[C@@H]1CN(c2nc(Nc3cn(CCCN4CCN(CCCOc5ccc(CNc6cc(N7CCCC[C@H]7CCO)nc7c(CC)cnn67)cn5)CC4)nc3OC)c3ncn(C)c3n2)C[C@H]1F` [Compound I-147, N-[(3R,4R)-1-[6-[[1-[3-[4-[3-[[5-[[[3-ethyl-5-[(2S)-2-(2-hydroxyethyl)-1-piperidyl]pyrazolo[1,5-a]pyrimidin-7-yl]amino]methyl]-2-pyridyl]oxy]propyl]piperazin-1-yl]propyl]-3-methoxy-pyrazol-4-yl]amino]-9-methyl-purin-2-yl]-4-fluoro-pyrrolidin-3-yl]prop-2-enamide], the 50% growth inhibitory concentration (GI50) in the assay on HEK293 cells (Homo sapiens, 72 h) was < 0.5 µM; in the assay on HeLa cells (Homo sapiens, 72 h), 0.5 to 1.5 µM.

`C=CC(=O)N[C@@H]1CN(c2nc(Nc3cn(CCCCCCCCNS(=O)(=O)c4ccc(Nc5ncc(Br)c(Nc6cccc(F)c6C(N)=O)n5)cc4)nc3OC)c3ncn(C)c3n2)C[C@H]1F` [Compound I-148, 2-[[5-bromo-2-[4-[8-[4-[[2-[(3R,4R)-3-fluoro-4-(prop-2-enoylamino)pyrrolidin-1-yl]-9-methyl-purin-6-yl]amino]-3-methoxy-pyrazol-1-yl]octylsulfamoyl]anilino]pyrimidin-4-yl]amino]-6-fluoro-benzamide]: the 50% growth inhibitory concentration (GI50) in the assay on HEK293 cells (Homo sapiens, 72 h) was < 0.5 µM; with HeLa cells (Homo sapiens, 72 h), < 0.5 µM.

For the compound `CC[C@@H]1C(=O)N(C)c2cnc(Nc3ccc(C(=O)NCCCN4CCN(CCCN(C)C/C=C/C(=O)Nc5cc(Nc6nccc(-c7cn(C)c8ccccc78)n6)c(OC)cc5N(C)CCN(C)C)CC4)cc3OC)nc2N1C1CCCC1` [Compound I-151, 4-[[(7R)-8-cyclopentyl-7-ethyl-5-methyl-6-oxo-7H-pteridin-2-yl]amino]-N-[3-[4-[3-[[(E)-4-[2-[2-(dimethylamino)ethyl-methyl-amino]-4-methoxy-5-[[4-(1-methylindol-3-yl)pyrimidin-2-yl]amino]anilino]-4-oxo-but-2-enyl]-methyl-amino]propyl]piperazin-1-yl]propyl]-3-methoxy-benzamide], the GI50 in the assay with HEK293 cells (Homo sapiens, 72 h) is 0.5 to 1.5 µM; in the assay on HeLa cells (Homo sapiens, 72 h), < 0.5 µM.
